# Test results: article PMC9401498 (Clinical Cancer Research, 2021)
# Entries after “also recorded” stand apart in the source; their conditions may differ.
# System: patients with advanced and/or treatment-refractory solid tumors
# Experiment: Safety and tolerability: adverse events
# Type: in vivo, human
# Conditions: for Alanine aminotransferase increased (treatment-related AE) / Ammonia increased (treatment-related AE) / Anemia (treatment-related AE) / Aspartate aminotransferase increased (treatment-related AE) / Blood alkaline phosphatase increased (treatment-related AE) / Blood bilirubin increased (treatment-related AE) / Blood creatinine increased (treatment-related AE) / Constipation (treatment-related AE) / Decreased appetite (treatment-related AE) / Diarrhea (treatment-related AE) / Dysgeusia (treatment-related AE) / Dyspepsia (treatment-related AE) / Fatigue (treatment-related AE) / Gastroesophageal reflux disease (treatment-related AE) / Hypomagnesemia (treatment-related AE) / Hyponatremia (treatment-related AE) / Nausea (treatment-related AE) / Neuropathy peripheral (treatment-related AE) / Patients with ≥1 treatment-emergent AE / Patients with ≥1 treatment-related AE / Photophobia (treatment-related AE) / Photopsia (treatment-related AE) / Thrombocytopenia (treatment-related AE) / Vision blurred (treatment-related AE) / Vomiting (treatment-related AE) / Weight decreased (treatment-related AE) / γ-Glutamyltransferase increased (treatment-related AE) / Abdominal distension (treatment-related AE) / Activated partial thromboplastin time prolonged (treatment-related AE): TID-fasted (n = 32)
# [1] = across doses and schedules, 120 patients
smiles,measurement,setting,value
"O=C(Cc1cccc(OC(F)(F)F)c1)Nc1ccc(CCCCc2nnc(NC(=O)Cc3ccccn3)s2)nn1 [telaglenastat, Telaglenastat]",Alanine aminotransferase increased (treatment-related AE),All grades,6 (18.8) n (%)
same,Ammonia increased (treatment-related AE),All grades,0 n (%)
same,Anemia (treatment-related AE),All grades,0 n (%)
same,Aspartate aminotransferase increased (treatment-related AE),All grades,6 (18.8) n (%)
same,Blood alkaline phosphatase increased (treatment-related AE),All grades,2 (6.3) n (%)
same,Blood bilirubin increased (treatment-related AE),All grades,0 n (%)
same,Blood creatinine increased (treatment-related AE),All grades,1 (3.1) n (%)
same,Constipation (treatment-related AE),All grades,2 (6.3) n (%)
same,Decreased appetite (treatment-related AE),All grades,0 n (%)
same,Diarrhea (treatment-related AE),All grades,1 (3.1) n (%)
same,Dysgeusia (treatment-related AE),All grades,1 (3.1) n (%)
same,Dyspepsia (treatment-related AE),All grades,0 n (%)
same,Fatigue (treatment-related AE),All grades,7 (21.9) n (%)
same,Gastroesophageal reflux disease (treatment-related AE),All grades,0 n (%)
same,Hypomagnesemia (treatment-related AE),All grades,0 n (%)
same,Hyponatremia (treatment-related AE),All grades,0 n (%)
same,Nausea (treatment-related AE),All grades,2 (6.3) n (%)
same,Neuropathy peripheral (treatment-related AE),All grades,1 (3.1) n (%)
same,Patients with ≥1 treatment-emergent AE,All grades,30 (93.8) n (%)
same,Patients with ≥1 treatment-related AE,All grades,23 (71.9) n (%)
same,Photophobia (treatment-related AE),All grades,1 (3.1) n (%)
same,Photopsia (treatment-related AE),All grades,1 (3.1) n (%)
same,Thrombocytopenia (treatment-related AE),All grades,0 n (%)
same,Vision blurred (treatment-related AE),All grades,0 n (%)
same,Vomiting (treatment-related AE),All grades,4 (12.5) n (%)
same,Weight decreased (treatment-related AE),All grades,0 n (%)
same,γ-Glutamyltransferase increased (treatment-related AE),All grades,1 (3.1) n (%)
same,Abdominal distension (treatment-related AE),Grade 3,0 n (%)
same,Activated partial thromboplastin time prolonged (treatment-related AE),Grade 3,0 n (%)
same,Alanine aminotransferase increased (treatment-related AE),Grade 3,5 (15.6) n (%)
same,Ammonia increased (treatment-related AE),Grade 3,0 n (%)
same,Anemia (treatment-related AE),Grade 3,0 n (%)
same,Aspartate aminotransferase increased (treatment-related AE),Grade 3,3 (9.4) n (%)
same,Blood alkaline phosphatase increased (treatment-related AE),Grade 3,1 (3.1) n (%)
same,Blood bilirubin increased (treatment-related AE),Grade 3,0 n (%)
same,Blood creatinine increased (treatment-related AE),Grade 3,1 (3.1) n (%)
same,Constipation (treatment-related AE),Grade 3,0 n (%)
same,Decreased appetite (treatment-related AE),Grade 3,0 n (%)
same,Diarrhea (treatment-related AE),Grade 3,0 n (%)
same,Dysgeusia (treatment-related AE),Grade 3,0 n (%)
same,Dyspepsia (treatment-related AE),Grade 3,0 n (%)
same,Fatigue (treatment-related AE),Grade 3,0 n (%)
same,Gastroesophageal reflux disease (treatment-related AE),Grade 3,0 n (%)
same,Hypomagnesemia (treatment-related AE),Grade 3,0 n (%)
same,Hyponatremia (treatment-related AE),Grade 3,0 n (%)
same,Nausea (treatment-related AE),Grade 3,0 n (%)
same,Neuropathy peripheral (treatment-related AE),Grade 3,0 n (%)
same,Patients with ≥1 treatment-emergent AE,Grade 3,9 (28.1) n (%)
same,Patients with ≥1 treatment-related AE,Grade 3,4 (12.5) n (%)
same,Photophobia (treatment-related AE),Grade 3,0 n (%)
same,Photopsia (treatment-related AE),Grade 3,0 n (%)
same,Thrombocytopenia (treatment-related AE),Grade 3,0 n (%)
same,Vision blurred (treatment-related AE),Grade 3,0 n (%)
same,Vomiting (treatment-related AE),Grade 3,0 n (%)
same,Weight decreased (treatment-related AE),Grade 3,0 n (%)
same,γ-Glutamyltransferase increased (treatment-related AE),Grade 3,0 n (%)
same,Abdominal distension (treatment-related AE),Grade 4,0 n (%)
same,Activated partial thromboplastin time prolonged (treatment-related AE),Grade 4,0 n (%)
same,Alanine aminotransferase increased (treatment-related AE),Grade 4,0 n (%)
same,Ammonia increased (treatment-related AE),Grade 4,0 n (%)
same,Anemia (treatment-related AE),Grade 4,0 n (%)
same,Aspartate aminotransferase increased (treatment-related AE),Grade 4,2 (6.3) n (%)
same,Blood alkaline phosphatase increased (treatment-related AE),Grade 4,0 n (%)
same,Blood bilirubin increased (treatment-related AE),Grade 4,0 n (%)
same,Blood creatinine increased (treatment-related AE),Grade 4,0 n (%)
same,Constipation (treatment-related AE),Grade 4,0 n (%)
same,Decreased appetite (treatment-related AE),Grade 4,0 n (%)
same,Diarrhea (treatment-related AE),Grade 4,0 n (%)
same,Dysgeusia (treatment-related AE),Grade 4,0 n (%)
same,Dyspepsia (treatment-related AE),Grade 4,0 n (%)
same,Fatigue (treatment-related AE),Grade 4,0 n (%)
same,Gastroesophageal reflux disease (treatment-related AE),Grade 4,0 n (%)
same,Hypomagnesemia (treatment-related AE),Grade 4,0 n (%)
same,Hyponatremia (treatment-related AE),Grade 4,0 n (%)
same,Nausea (treatment-related AE),Grade 4,0 n (%)
same,Neuropathy peripheral (treatment-related AE),Grade 4,0 n (%)
same,Patients with ≥1 treatment-emergent AE,Grade 4,3 (9.4) n (%)
same,Patients with ≥1 treatment-related AE,Grade 4,3 (9.4) n (%)
same,Photophobia (treatment-related AE),Grade 4,0 n (%)
same,Photopsia (treatment-related AE),Grade 4,0 n (%)
same,Thrombocytopenia (treatment-related AE),Grade 4,0 n (%)
same,Vision blurred (treatment-related AE),Grade 4,0 n (%)
same,Vomiting (treatment-related AE),Grade 4,0 n (%)
same,Weight decreased (treatment-related AE),Grade 4,0 n (%)
same,γ-Glutamyltransferase increased (treatment-related AE),Grade 4,1 (3.1) n (%)
same,Incidence of treatment-related grade 3/4 AEs,"TID-fasted, 7/32",22%
same,Patients with treatment-related AEs of any grade,"across doses and schedules, 87/120 patients",72.5%
same,"ALT increased, treatment-related AE of any grade",[1],17%
same,"AST increased, treatment-related AE of any grade",[1],13%
same,"Fatigue, treatment-related AE of any grade",[1],23%
same,"Nausea, treatment-related AE of any grade",[1],19%
same,"Photophobia, treatment-related AE of any grade",[1],11%
same,Patients who died during the study-reporting period,all due to progressive disease (PD),Seven
same,DLTs,"dose escalation, BID-fed schedule",No DLTs
same,Hy's Law criteria (drug-induced liver injury),either schedule,no patients on either schedule met criteria for the Hy's Law; also recorded: no cases of drug-induced liver injury according to the Hy's law criteria
same,Patients with treatment-related SAEs,"four SAEs: ALT and AST increase (400 mg TID), blood creatinine increase (250 mg TID), grade 2 convulsion (1,000 mg BID)",3 patients
